Source: US9708314B2, “Heterocyclic amide compound” (NISSAN CHEMICAL INDUSTRIES, LTD., priority 2013, dated 2017)

What was measured:
Format in all cases: in vivo
Cyperus difformis = experiment: Test Example 3: herbicidal effect by application to foliage (Wagner pot, water depth 0.1-0.5 cm); conditions: Nineteenth Table; application to foliage; application herbicide amount 320 g/ha
Method in brief: (§1)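 Scores (0–5) reflect herbicidal ratio three weeks after a foliar spray: 0 is 5% or less, 5 is 90% or more. Plants had grown 14 days in alluvial soil pots in a 25–30 °C greenhouse before treatment with water-diluted emulsion at a set g/ha.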

[1] = tested on: Echinochloa crus-galli var. crus-galli; experiment: as above; conditions: Nineteenth Table; application to foliage; application herbicide amount 320 g/ha
Method in brief: as §1

Leptochloa chinensis = experiment: as above; conditions: Nineteenth Table; application to foliage; application herbicide amount 320 g/ha
Method in brief: as §1

[2] = tested on: directly sowed Oryza sativa; experiment: Test Example 3: effect on crop by application to foliage (Wagner pot, water depth 0.1-0.5 cm); conditions: Nineteenth Table; application to foliage; application herbicide amount 320 g/ha
Method in brief: as §1

Abutilon theophrasti = experiment: Test Example 4: herbicidal effect by application to foliage (diluvial soil, plastic box); conditions: 320 g/ha; for herbicidal effect, M (Abutilon theophrasti): application to foliage
Method in brief: (§2)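 Greenhouse plants (25° C. to 30° C., 14 d, diluvial soil) receive a foliar spray of water-diluted emulsifiable formulation at defined g/ha. Grading after 3 weeks uses a six-step herbicidal-ratio scale, with 4 covering 70% to <90% and 1 covering 5% to <20%.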

Alopecurus myosuroides = experiment: as above; conditions: 320 g/ha; for herbicidal effect, J (Alopecurus myosuroides): application to foliage
Method in brief: as §2

Amaranthus retroflexus = experiment: as above; conditions: 320 g/ha; for herbicidal effect, N (Amaranthus retroflexus): application to foliage
Method in brief: as §2

Apera spica-venti. = experiment: as above; conditions: 320 g/ha; for herbicidal effect, L (Apera spica-venti.): application to foliage
Method in brief: as §2

Avena fatua = experiment: as above; conditions: 320 g/ha; for herbicidal effect, I (Avena fatua): application to foliage
Method in brief: as §2

Chenopodium album = experiment: as above; conditions: 320 g/ha; for herbicidal effect, O (Chenopodium album): application to foliage
Method in brief: as §2

Digitaria ciliaris = experiment: as above; conditions: 320 g/ha; for herbicidal effect, F (Digitaria ciliaris): application to foliage
Method in brief: as §2

[3] = tested on: Echinochloa crus-galli var. crus-galli; experiment: as above; conditions: 320 g/ha; for herbicidal effect, H (Echinochloa crus-galli var. crus-galli): application to foliage
Method in brief: as §2

Galium spurium = experiment: as above; conditions: 320 g/ha; for herbicidal effect, Q (Galium spurium): application to foliage
Method in brief: as §2

Lolium multiflorum Lam. = experiment: as above; conditions: 320 g/ha; for herbicidal effect, K (Lolium multiflorum Lam.): application to foliage
Method in brief: as §2

Setaria viridis = experiment: as above; conditions: 320 g/ha; for herbicidal effect, G (Setaria viridis): application to foliage
Method in brief: as §2

Stellaria media = experiment: as above; conditions: 320 g/ha; for herbicidal effect, P (Stellaria media): application to foliage
Method in brief: as §2

Veronica persica = experiment: as above; conditions: 320 g/ha; for herbicidal effect, R (Veronica persica): application to foliage
Method in brief: as §2

[4] = tested on: Beta vulgaris ssp. vulgaris; experiment: Test Example 4: effect on crop by application to foliage (diluvial soil, plastic box); conditions: 320 g/ha; for effect on crop, f (Beta vulgaris ssp. vulgaris): application to foliage
Method in brief: as §2

Brassica campestris L. = experiment: as above; conditions: 320 g/ha; for effect on crop, g (Brassica campestris L.): application to foliage
Method in brief: as §2

Glycine max = experiment: as above; conditions: 320 g/ha; for effect on crop, c (Glycine max): application to foliage
Method in brief: as §2

Triticum aestivum = experiment: as above; conditions: 320 g/ha; for effect on crop, e (Triticum aestivum): application to foliage
Method in brief: as §2

Zea mays = experiment: as above; conditions: 320 g/ha; for effect on crop, b (Zea mays): application to foliage
Method in brief: as §2

[5] = tested on: directly sowed Oryza sativa; experiment: as above; conditions: 320 g/ha; for effect on crop, d (directly sowed Oryza sativa): application to foliage
Method in brief: as §2

Structure (SMILES) | E (herbicidal effect grade) (Cyperus difformis) | H (herbicidal effect grade) [1] | D (herbicidal effect grade) (Leptochloa chinensis) | b (effect on crop grade) [2] | herbicidal effect, M (Abutilon theophrasti) (Abutilon theophrasti) | herbicidal effect, J (Alopecurus myosuroides) (Alopecurus myosuroides) | herbicidal effect, N (Amaranthus retroflexus) (Amaranthus retroflexus) | herbicidal effect, L (Apera spica-venti.) (Apera spica-venti.) | herbicidal effect, I (Avena fatua) (Avena fatua) | herbicidal effect, O (Chenopodium album) (Chenopodium album) | herbicidal effect, F (Digitaria ciliaris) (Digitaria ciliaris) | herbicidal effect, H (Echinochloa crus-galli var. crus-galli) [3] | herbicidal effect, Q (Galium spurium) (Galium spurium) | herbicidal effect, K (Lolium multiflorum Lam.) (Lolium multiflorum Lam.) | herbicidal effect, G (Setaria viridis) (Setaria viridis) | herbicidal effect, P (Stellaria media) (Stellaria media) | herbicidal effect, R (Veronica persica) (Veronica persica) | effect on crop, f (Beta vulgaris ssp. vulgaris) [4] | effect on crop, g (Brassica campestris L.) (Brassica campestris L.) | effect on crop, c (Glycine max) (Glycine max) | other results
Cn1nnnc1NC(=O)c1ccc(C(F)(F)F)n2c(CS(=O)(=O)CC(F)(F)F)nnc12 [2-036] | 4 (Herbicidal ratio of 70% or more and less than 90%) | 4 (Herbicidal ratio of 70% or more and less than 90%) | 5 (Herbicidal ratio of 90% or more (almost completely withered)) | 1 (Herbicidal ratio of 5% or more and less than 20%) |  |  |  |  |  |  |  |  |  |  |  |  |  |  |  |  | M (Abutilon theophrasti) herbicidal effect grade (Abutilon theophrasti; foliage application): 5 (Herbicidal ratio of 90% or more (almost completely withered)); J (Alopecurus myosuroides) herbicidal effect grade (Alopecurus myosuroides; foliage application): 0 (Herbicidal ratio of 5% or less (almost no effect)); N (Amaranthus retroflexus) herbicidal effect grade (Amaranthus retroflexus; foliage application): 5 (Herbicidal ratio of 90% or more (almost completely withered)); L (Apera spica-venti.) herbicidal effect grade (Apera spica-venti.; foliage application): 3 (Herbicidal ratio of 40% or more and less than 70%); I (Avena fatua) herbicidal effect grade (Avena fatua; foliage application): 1 (Herbicidal ratio of 5% or more and less than 20%); O (Chenopodium album) herbicidal effect grade (Chenopodium album; foliage application): 5 (Herbicidal ratio of 90% or more (almost completely withered)); F (Digitaria ciliaris) herbicidal effect grade (Digitaria ciliaris; foliage application): 5 (Herbicidal ratio of 90% or more (almost completely withered)); H (Echinochloa crus-galli var. crus-galli) herbicidal effect grade ([3]; foliage application): 5 (Herbicidal ratio of 90% or more (almost completely withered)); Q (Galium spurium) herbicidal effect grade (Galium spurium; foliage application): 4 (Herbicidal ratio of 70% or more and less than 90%); K (Lolium multiflorum Lam.) herbicidal effect grade (Lolium multiflorum Lam.; foliage application): 0 (Herbicidal ratio of 5% or less (almost no effect)); G (Setaria viridis) herbicidal effect grade (Setaria viridis; foliage application): 4 (Herbicidal ratio of 70% or more and less than 90%); P (Stellaria media) herbicidal effect grade (Stellaria media; foliage application): 5 (Herbicidal ratio of 90% or more (almost completely withered)); R (Veronica persica) herbicidal effect grade (Veronica persica; foliage application): 4 (Herbicidal ratio of 70% or more and less than 90%); f (Beta vulgaris ssp. vulgaris) effect on crop grade ([4]; foliage application): 5 (Herbicidal ratio of 90% or more (almost completely withered)); g (Brassica campestris L.) effect on crop grade (Brassica campestris L.; foliage application): 3 (Herbicidal ratio of 40% or more and less than 70%); c (Glycine max) effect on crop grade (Glycine max; foliage application): 0 (Herbicidal ratio of 5% or less (almost no effect)); e (Triticum aestivum) effect on crop grade (Triticum aestivum; foliage application): 0 (Herbicidal ratio of 5% or less (almost no effect)); b (Zea mays) effect on crop grade (Zea mays; foliage application): 0 (Herbicidal ratio of 5% or less (almost no effect)); d (directly sowed Oryza sativa) effect on crop grade ([5]; foliage application): 2 (Herbicidal ratio of 20% or more and less than 40%)
CCn1ncnc1NC(=O)c1ccc(C(F)(F)F)n2c(C(C)C)nnc12 [4-002] | 0 (Herbicidal ratio of 5% or less (almost no effect)) | 0 (Herbicidal ratio of 5% or less (almost no effect)) | 4 (Herbicidal ratio of 70% or more and less than 90%) | 0 (Herbicidal ratio of 5% or less (almost no effect)) | 5 (Herbicidal ratio of 90% or more (almost completely withered)) | 0 (Herbicidal ratio of 5% or less (almost no effect)) | 4 (Herbicidal ratio of 70% or more and less than 90%) | 0 (Herbicidal ratio of 5% or less (almost no effect)) | 1 (Herbicidal ratio of 5% or more and less than 20%) | 4 (Herbicidal ratio of 70% or more and less than 90%) | 1 (Herbicidal ratio of 5% or more and less than 20%) | 2 (Herbicidal ratio of 20% or more and less than 40%) | 1 (Herbicidal ratio of 5% or more and less than 20%) | 0 (Herbicidal ratio of 5% or less (almost no effect)) | 1 (Herbicidal ratio of 5% or more and less than 20%) | 3 (Herbicidal ratio of 40% or more and less than 70%) | 1 (Herbicidal ratio of 5% or more and less than 20%) | 0 (Herbicidal ratio of 5% or less (almost no effect)) | 0 (Herbicidal ratio of 5% or less (almost no effect)) | 0 (Herbicidal ratio of 5% or less (almost no effect)) | effect on crop, e (Triticum aestivum) (Triticum aestivum): 0 (Herbicidal ratio of 5% or less (almost no effect)); effect on crop, b (Zea mays) (Zea mays): 0 (Herbicidal ratio of 5% or less (almost no effect)); effect on crop, d (directly sowed Oryza sativa) [5]: 1 (Herbicidal ratio of 5% or more and less than 20%)
CCn1nc2c(C(=O)Nc3nnc(C)o3)ccc(C(F)(F)F)n2c1=O [6-003] | 0 (Herbicidal ratio of 5% or less (almost no effect)) | 1 (Herbicidal ratio of 5% or more and less than 20%) | 5 (Herbicidal ratio of 90% or more (almost completely withered)) | 0 (Herbicidal ratio of 5% or less (almost no effect)) | 4 (Herbicidal ratio of 70% or more and less than 90%) | 0 (Herbicidal ratio of 5% or less (almost no effect)) | 2 (Herbicidal ratio of 20% or more and less than 40%) | 0 (Herbicidal ratio of 5% or less (almost no effect)) | 0 (Herbicidal ratio of 5% or less (almost no effect)) | 3 (Herbicidal ratio of 40% or more and less than 70%) | 4 (Herbicidal ratio of 70% or more and less than 90%) | 3 (Herbicidal ratio of 40% or more and less than 70%) | 1 (Herbicidal ratio of 5% or more and less than 20%) | 0 (Herbicidal ratio of 5% or less (almost no effect)) | 3 (Herbicidal ratio of 40% or more and less than 70%) | 4 (Herbicidal ratio of 70% or more and less than 90%) | 1 (Herbicidal ratio of 5% or more and less than 20%) | 1 (Herbicidal ratio of 5% or more and less than 20%) | 0 (Herbicidal ratio of 5% or less (almost no effect)) | 0 (Herbicidal ratio of 5% or less (almost no effect)) | effect on crop, e (Triticum aestivum) (Triticum aestivum): 0 (Herbicidal ratio of 5% or less (almost no effect)); effect on crop, b (Zea mays) (Zea mays): 0 (Herbicidal ratio of 5% or less (almost no effect)); effect on crop, d (directly sowed Oryza sativa) [5]: 0 (Herbicidal ratio of 5% or less (almost no effect))
